From article PMC9705075, “In Vitro characterization of the endocrine disrupting effects of per- and poly-fluoroalkyl substances (PFASs) on the human androgen receptor” (Journal of hazardous materials, 2022)

Tests used:
AR and PSA expression = test system: AR and PSA expression; set-up: method as in Kharlyngdoh et al. (2015); conditions: at 1 μM; ref Kharlyngdoh et al. (2015); cited from earlier work
[1] = target: T1, human androgen receptor (hAR) (Homo sapiens, UniProt P10275); assay: Mechanism of AR inhibition: testosterone dose-response curves in presence of test chemical, luciferase reporter, MDA-kb2 cells; assay type: cell-based; conditions: highest noncytotoxic concentration: 15 μM NON, HEP, OCT, NNN; 1 μM FLO; 0.05 μM OHF
MDA-kb2 cells = assay: Cell viability (colorimetric MTT) assay; assay type: cell-based, human
Method: The cytotoxic effect of PFASs was measured by a colorimetric MTT assay as described previously ([Tachachartvanich et al., 2020]). Briefly, MDA-kb2 cells were plated at a density of 3.0 × 10^4 cells/well in clear 96-well plates (Thermo Scientific, Waltham, MA). After 24 h incubation, cells were treated with PFASs at concentrations ranging from 0.1 to 100 μM in triplicate per treatment. The optical density was assessed at 570 nm with reference wavelength of 650 nm using microplate spectrophotometer (Tecan Infinite® 200PRO, Austria). All cytotoxicity experiments were performed side-by-side with the corresponding cell culture assays and repeated at least three times in a separate independent setup.

[2] = target: T1, human androgen receptor (hAR); assay: AR-mediated luciferase reporter gene assay, antiandrogenic effects (co-culture with […] testosterone), MDA-kb2 cells; assay type: cell-based; conditions: for IC20: MDA-kb2, 24 h, read-out: Inhibition REC20
[3] = test system: PSA, FKBP5 and AR mRNA in VCaP human prostate cancer cells; assay: Expression of androgen responsive genes (real-time PCR) in VCaP cells; assay type: cell-based; conditions: 24 h; for testosterone induced expression of FKBP5 / testosterone induced expression of PSA: 1 and 5 μM PFAS with […] testosterone; for testosterone induced expression of FKBP5 / testosterone induced expression of PSA / expression of AR: 10% CD FBS; for expression of AR: PFAS (1 and 5 μM) or 50 nM OHF with […] testosterone
Method: VCaP cells were cultured in phenol red-free DMEM supplemented with 10% charcoal-dextran stripped FBS (10% CD FBS, Hyclone, USA) and 1% L-glutamine (Gibco, Grand Island, NY) for 3 days prior to PFAS treatment. Cells were plated at a density of 2.0 × 10^6 cells/well in 6-well plates (CellStar, Monroe, NC) and incubated 24 h. […] After the incubation, total RNA was extracted using the RNeasy Mini Kit (Qiagen, Germantown, MD). Briefly, 2 μg of total RNA were reverse transcribed to cDNA using the SuperScript IV VILO (Thermo Scientific, Waltham, MA) and subjected to real-time PCR (Stratagene MxP3005, Agilent Technologies, Palo Alto, CA). The cDNA was amplified in 10 μL of SYBR Green real-time PCR Master Mixes (Thermofisher Scientific, Waltham, MA) according to the manufacturer’s protocol. […] The fold change of the target genes was compared to the vehicle control using the 2^−ΔΔCt method ([Livak and Schmittgen, 2001]).
Fig. 4. […] Values are expressed as the mean fold change ± S.E.M. from three independent experiments. […] Significance levels are represented with asterisk as following: *p < 0.05, **p < 0.01, ***p < 0.001, and ****p < 0.0001. The Ptrend is determined based on linear regression analysis.

[4] = test system: intracellular AR protein in VCaP cells; assay: Immunoblotting of intracellular AR protein in VCaP cells; assay type: cell-based, human; conditions: 10% FBS, 48 h exposure to PFAS
Method: Cells were plated at a density of 2.0 × 10^6 cells/well in 6-well plates (CellStar, Monroe, NC) and incubated 24 h.
Values are expressed as the mean fold change ± S.E.M. from three independent experiments.

AR = test system: AR; set-up: method as in Kjeldsen and Bonefeld-Jørgensen, 2013; conditions: in vitro study; ref Kjeldsen and Bonefeld-Jørgensen, 2013; cited from earlier work

T1 sequence (P10275 whole entry): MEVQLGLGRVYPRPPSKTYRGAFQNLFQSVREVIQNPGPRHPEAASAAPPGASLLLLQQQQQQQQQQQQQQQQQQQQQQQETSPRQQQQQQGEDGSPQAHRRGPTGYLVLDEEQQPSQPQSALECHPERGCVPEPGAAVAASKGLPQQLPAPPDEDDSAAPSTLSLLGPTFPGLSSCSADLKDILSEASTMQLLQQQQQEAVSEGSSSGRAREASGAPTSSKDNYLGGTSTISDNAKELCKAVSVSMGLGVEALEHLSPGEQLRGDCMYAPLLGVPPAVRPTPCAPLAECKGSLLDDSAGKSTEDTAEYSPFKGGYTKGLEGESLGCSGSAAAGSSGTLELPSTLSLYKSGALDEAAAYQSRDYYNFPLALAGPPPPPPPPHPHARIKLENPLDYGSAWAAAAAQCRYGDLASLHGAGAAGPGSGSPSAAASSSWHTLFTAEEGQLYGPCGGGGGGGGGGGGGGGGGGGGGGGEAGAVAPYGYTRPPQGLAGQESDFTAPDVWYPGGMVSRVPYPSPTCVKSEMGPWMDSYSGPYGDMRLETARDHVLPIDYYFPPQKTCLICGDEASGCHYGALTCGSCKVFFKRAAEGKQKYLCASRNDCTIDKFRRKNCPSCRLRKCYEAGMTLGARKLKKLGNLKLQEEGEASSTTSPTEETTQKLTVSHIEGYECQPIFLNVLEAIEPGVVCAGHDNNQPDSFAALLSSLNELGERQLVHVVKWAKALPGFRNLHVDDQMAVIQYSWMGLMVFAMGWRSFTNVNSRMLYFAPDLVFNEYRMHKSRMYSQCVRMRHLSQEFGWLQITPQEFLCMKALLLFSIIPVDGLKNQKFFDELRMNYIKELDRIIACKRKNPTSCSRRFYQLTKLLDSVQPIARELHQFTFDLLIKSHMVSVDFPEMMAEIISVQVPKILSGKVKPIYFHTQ

C=CCOc1c(Br)cc(Br)cc1Br [ATE, allyl 2,4,6-tribromophenyl ether]
AR expression (AR and PSA expression): significantly increased AR expression

C=C(Br)COc1c(Br)cc(Br)cc1Br [BATE, 2-bromoallyl 2,4,6-tribromophenyl ether]
AR expression (AR and PSA expression): significantly increased AR expression

Oc1ccc(/N=N/c2ccc(-c3ccc(C(F)(F)C(F)(F)C(F)(F)F)cc3)cc2)c(F)c1 [FLO, 3-Fluoro-4-{(E)-[4'-(heptafluoropropyl) [1,1'-biphenyl]-4-yl]diazenyl}phenol]
effect on dose response curve of testosterone [1]: did not change the dose response curves
cytotoxicity (MDA-kb2 cells): relatively high cytotoxicity

FC(F)(F)C(F)(F)C(F)(F)c1nc2ccccc2nc1-c1ccccc1 [HEP, 2-(Heptafluoropropyl)-3-phenylquinoxaline]
IC20 [2]: 3.08 µM
effect on dose response curve of testosterone [1]: rightward parallel shift
testosterone induced expression of FKBP5 [3]: significantly and concentration dependently decreased
testosterone induced expression of PSA [3]: significantly and concentration dependently decreased
AR protein level, normal conditions [4]: significantly decreased the AR protein

O=C(Nc1ccc([N+](=O)[O-])cc1)C(F)(F)C(F)(F)C(F)(F)C(F)(F)F [NNN, 2,2,3,3,4,4,5,5,5-Nonafluoro-N-(4 nitrophenyl)pentanamide]
IC20 [2]: 2.78 µM
inhibition at 10 µM ([2]; MDA-kb2, read-out: inhibition of AR transactivation): ~25%
effect on dose response curve of testosterone [1]: rightward parallel shift
AR expression at 1 μM ([3]; 1 μM with […] testosterone): did not significantly affect AR expression
testosterone induced expression of FKBP5 [3]: significantly and concentration dependently decreased
testosterone induced expression of PSA [3]: significantly and concentration dependently decreased
expression of AR [3]: upregulating the expression of AR
AR protein level, normal conditions [4]: did not significantly affect cellular AR protein levels

O=c1cc(C(F)(F)C(F)(F)C(F)(F)C(F)(F)F)c2cc3c4c(c2o1)CCCN4CCC3 [NON, 9-(Nonafluorobutyl)-2,3,6,7-tetrahydro-1H,5H,11H-pyrano[2,3-f]pyrido[3,2,1-ij]quinolin-11-one]
IC20 [2]: 10.5 µM
effect on dose response curve of testosterone [1]: rightward parallel shift
testosterone induced expression of FKBP5 [3]: significantly and concentration dependently decreased
testosterone induced expression of PSA [3]: significantly and concentration dependently decreased
AR protein level, normal conditions [4]: significantly decreased the AR protein

Fc1c(F)c(F)c2c(F)c(F)c(F)c(F)c2c1F [OCT, Octafluoronaphthalene]
effect on dose response curve of testosterone [1]: did not change the dose response curves

CC(C)(O)C(=O)Nc1ccc([N+](=O)[O-])c(C(F)(F)F)c1 [OHF, hydroxyflutamide, reference compound]
effect on dose response curve of testosterone [1]: the most parallel shift
expression of AR [3]: upregulating the expression of AR

O=C(O)C(F)(F)C(F)(F)C(F)(F)C(F)(F)C(F)(F)C(F)(F)C(F)(F)C(F)(F)C(F)(F)F [PFDA, perfluorodecanoate]
RIC20, antiandrogenic effect (AR): ~24 µM

O=S(=O)(O)C(F)(F)C(F)(F)C(F)(F)C(F)(F)C(F)(F)C(F)(F)F [PFHxS, perfluorohexane sulfonate]
RIC20, antiandrogenic effect (AR): ~19 µM

O=C(O)C(F)(F)C(F)(F)C(F)(F)C(F)(F)C(F)(F)C(F)(F)C(F)(F)C(F)(F)F [PFNA, perfluorononanoate]
RIC20, antiandrogenic effect (AR): ~44 µM

O=C(O)C(F)(F)C(F)(F)C(F)(F)C(F)(F)C(F)(F)C(F)(F)C(F)(F)F [PFOA, perfluorooctanoic acid]
RIC20, antiandrogenic effect (AR): around 10 μM
